According to article PMC4237514, “Novel amino-β-lactam derivatives as potent cholesterol absorption inhibitors” (European Journal of Medicinal Chemistry, 2014):

Biological target: T1, human NPC1L1 (Homo sapiens, UniProt Q9UHC9)
T1 construct: expressed in transfected cells
T1 sequence (Q9UHC9 22-1359): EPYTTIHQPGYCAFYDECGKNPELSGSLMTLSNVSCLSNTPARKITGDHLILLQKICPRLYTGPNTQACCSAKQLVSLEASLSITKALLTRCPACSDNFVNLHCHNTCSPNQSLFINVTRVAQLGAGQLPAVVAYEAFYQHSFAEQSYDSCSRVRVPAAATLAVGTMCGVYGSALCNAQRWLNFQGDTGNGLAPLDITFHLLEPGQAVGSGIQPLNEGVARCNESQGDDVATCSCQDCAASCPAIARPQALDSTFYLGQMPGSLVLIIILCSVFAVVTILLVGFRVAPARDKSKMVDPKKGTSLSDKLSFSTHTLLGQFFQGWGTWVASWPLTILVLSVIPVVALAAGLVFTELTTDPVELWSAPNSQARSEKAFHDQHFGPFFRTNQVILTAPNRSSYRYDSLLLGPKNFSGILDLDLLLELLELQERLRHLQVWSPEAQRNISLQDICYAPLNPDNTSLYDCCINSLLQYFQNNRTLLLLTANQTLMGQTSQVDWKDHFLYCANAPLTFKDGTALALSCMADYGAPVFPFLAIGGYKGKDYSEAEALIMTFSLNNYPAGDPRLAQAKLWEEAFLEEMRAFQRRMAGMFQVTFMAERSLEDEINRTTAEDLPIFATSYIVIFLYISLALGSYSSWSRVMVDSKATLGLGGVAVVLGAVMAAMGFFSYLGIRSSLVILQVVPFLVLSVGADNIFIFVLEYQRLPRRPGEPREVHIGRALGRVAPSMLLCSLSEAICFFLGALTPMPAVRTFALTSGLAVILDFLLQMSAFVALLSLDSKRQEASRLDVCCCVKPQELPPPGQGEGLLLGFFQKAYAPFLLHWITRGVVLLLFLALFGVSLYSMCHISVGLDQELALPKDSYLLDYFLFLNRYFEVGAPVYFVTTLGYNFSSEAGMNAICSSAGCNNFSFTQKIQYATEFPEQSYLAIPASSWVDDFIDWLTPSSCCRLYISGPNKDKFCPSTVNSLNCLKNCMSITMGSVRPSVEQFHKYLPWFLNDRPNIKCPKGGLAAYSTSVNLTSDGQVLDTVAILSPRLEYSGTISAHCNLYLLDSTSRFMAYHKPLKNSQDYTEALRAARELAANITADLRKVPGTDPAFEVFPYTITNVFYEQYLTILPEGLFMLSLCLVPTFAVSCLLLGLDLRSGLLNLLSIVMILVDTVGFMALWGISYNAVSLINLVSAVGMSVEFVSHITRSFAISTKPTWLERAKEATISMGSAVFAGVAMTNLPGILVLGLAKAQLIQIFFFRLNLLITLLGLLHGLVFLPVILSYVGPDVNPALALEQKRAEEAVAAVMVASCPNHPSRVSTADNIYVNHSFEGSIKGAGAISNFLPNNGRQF
Assay: In vitro [3H]cholesterol uptake assay in hNPC1L1/MDCKII cells
Format: cell-based
Conditions: for IC50: 1 h, read-out: IC50, cholesterol uptake inhibition; for inhibition at 120 µM: MDCK-II, maximum at 120 μM, compared to untreated cells
Description: Medium A contained DMEM plus 100 units/mL penicillin and 100 μg/mL streptomycin supplemented with 5% lipoprotein-deficient serum (density > 1.21 g/mL, prepared from FCS by ultracentrifugation). Cholesterol Replenishing Medium (Medium B) was prepared according to the modified method reported by Field et al.. In brief, 0.25 mM oleic acid, 50 μM free cholesterol, 10 μM compactin, 50 μM mevalonate, 5 mM Na-taurocholate (Sigma–Aldrich, Germany), and [^3H]cholesterol (0.18 μCi/mL medium, [1,2–3H(N)] cholesterol, 1 mCi/mL (ARC Inc., USA)) in Medium A were mixed and sonicated. Following the micellar formation, compounds 1, 5, 6, 5/6 (70:30), and 6/5 (85:15) (73 mM stock solution in DMSO) were added to Medium B and vortexed to obtain the final concentrations (10, 30, 60, 90, 120, 150, 200 μM).
MDCKII wildtype and hNPC1L1/MDCKII cells were seeded in 24-well plates at a density of 5 × 10^5 cells/mL medium (500 μL medium/well) in Medium A 24 h before the treatment. Cells were washed once with PBS and incubated in Medium B (500 μL medium/well) containing micelles and tested compounds in indicated concentrations for 1 h. Following the incubation, the medium was removed and cells were washed three times with ice-cold 0.2% free fatty acid-free BSA. Cells were lysed and radioactivity in the lysate (100 μL) was determined by liquid scintillation counting. Protein concentrations of the lysates were determined with the DC Protein Assay (Bio-Rad, USA). The results were calculated as cpm/mg protein and expressed as percentage of inhibition compared to untreated cells. Each concentration was tested in duplicate in three independent experiments.

`O=C1[C@H](NCC(O)c2ccc(F)cc2)[C@@H](c2ccc(O)cc2)N1c1ccc(F)cc1` (mixture of isomers) [5/6 (70:30), (3R,4R)-3-[(2R/S)-2-(4-fluorophenyl)-2-hydroxyethylamino]-1-(4-fluorophenyl)-4-(4-hydroxyphenyl)azetidin-2-one] was tested, and the IC50 was 60 µM and the inhibition at 120 µM was 50 to 55%.

For `O=C1[C@H](CC[C@H](O)c2ccc(F)cc2)[C@@H](c2ccc(O)cc2)N1c1ccc(F)cc1` [Compound 1, ezetimibe, reference compound], the “effect on cholesterol uptake” value (Figure S3) was “inhibited cholesterol uptake”.

`O=C1[C@H](NC[C@H](O)c2ccc(F)cc2)[C@@H](c2ccc(O)cc2)N1c1ccc(F)cc1` [Compound 5] showed an IC50 of 72 µM and an inhibition at 120 µM of 50 to 55%.

`O=C1[C@H](NC[C@@H](O)c2ccc(F)cc2)[C@@H](c2ccc(O)cc2)N1c1ccc(F)cc1` [Compound 6, (3R,4R)-3-[(2S)-2-(4-fluorophenyl)-2-hydroxyethylamino]-1-(4-fluorophenyl)-4-(4-hydroxyphenyl)azetidin-2-one] was tested, and the IC50 was 80 µM and the inhibition at 120 µM was 50 to 55%.
